Laboratory results from PubChem BioAssay AID248 (DTP/NCI, 2004).
Values joined by “and” are separate entries in the source; they are usually repeats but may differ in a detail not shown here. Equal entries are not always repeated. Inconclusive results and toxic doses are left out. No stated cut-off is given here; in the data, active means T/C of 150% or more; inactive means T/C below 125%.

System: L1210 leukemia ip in BDF1 mice, survival T/C
Assay: NCI In Vivo Anticancer Drug Screen. Data for tumor model L1210 Leukemia (intraperitoneal) in B6D2F1 (BDF1) mice
Settings: endpoint: mean survival time, higher = longer survival
Outline: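 Transplantable tumor model; survival measured in treated vs vehicle control mice. Value = treated/control.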

[1] = dose: 100.0 mg/kg/injection, schedule: Q04DX003 (ip), vehicle: saline with Tween-80
[2] = dose: 200.0 mg/kg/injection, schedule: Q04DX003 (ip), vehicle: saline with Tween-80
[3] = dose: 400.0 mg/kg/injection, schedule: Q04DX003 (ip), vehicle: saline with Tween-80
[4] = dose: 100.0 mg/kg/injection, schedule: Q01DX009 (ip), vehicle: saline sonified
[5] = dose: 200.0 mg/kg/injection, schedule: Q01DX009 (ip), vehicle: saline sonified
[6] = dose: 400.0 mg/kg/injection, schedule: Q01DX009 (ip), vehicle: saline sonified
[7] = dose: 100.0 mg/kg/injection, schedule: Q01DX009 (ip), vehicle: Klucel (hydroxypropylcellulose) (HPC)
[8] = dose: 200.0 mg/kg/injection, schedule: Q01DX009 (ip), vehicle: Klucel (hydroxypropylcellulose) (HPC)
[9] = dose: 400.0 mg/kg/injection, schedule: Q01DX009 (ip), vehicle: Klucel (hydroxypropylcellulose) (HPC)
[10] = dose: 100.0 mg/kg/injection, schedule: Q04DX002 (ip), vehicle: Klucel (hydroxypropylcellulose) (HPC)
[11] = dose: 100.0 mg/kg/injection, schedule: Q04DX003 (ip), vehicle: Klucel (hydroxypropylcellulose) (HPC)
[12] = dose: 200.0 mg/kg/injection, schedule: Q04DX002 (ip), vehicle: Klucel (hydroxypropylcellulose) (HPC)
[13] = dose: 200.0 mg/kg/injection, schedule: Q04DX003 (ip), vehicle: Klucel (hydroxypropylcellulose) (HPC)
[14] = dose: 400.0 mg/kg/injection, schedule: Q04DX002 (ip), vehicle: Klucel (hydroxypropylcellulose) (HPC)
[15] = dose: 400.0 mg/kg/injection, schedule: Q04DX003 (ip), vehicle: Klucel (hydroxypropylcellulose) (HPC)

Measured: T/C

FC(F)(F)C(Cl)Br (configuration not stated)
inactive: dose: 25.0 mg/kg/injection, schedule: Q04DX003 (ip), vehicle: saline 106 % of control | dose: 50.0 mg/kg/injection, schedule: Q04DX003 (ip), vehicle: saline 104 % of control | dose: 100.0 mg/kg/injection, schedule: Q01DX001 (ip), vehicle: saline 101 % of control | [1] 98 % of control | dose: 100.0 mg/kg/injection, schedule: Q04DX003 (ip), vehicle: saline 97 % of control | dose: 150.0 mg/kg/injection, schedule: Q04DX003 (ip), vehicle: saline 98 % of control | [2] 97 % of control | dose: 225.0 mg/kg/injection, schedule: Q04DX003 (ip), vehicle: saline 101 % of control | dose: 335.0 mg/kg/injection, schedule: Q04DX003 (ip), vehicle: saline 96 % of control | [3] 106 % of control | dose: 1000.0 mg/kg/injection, schedule: Q05DX002 (ip), vehicle: water 97 % of control | dose: 2000.0 mg/kg/injection, schedule: Q05DX002 (ip), vehicle: water 108 % of control

CC(C)CC(C=NCC(CCN(C)C)(CC(C)C)c1cccc2ccccc12)(CCN(C)C)c1cccc2ccccc12 (configuration not stated)
inactive: dose: 12.5 mg/kg/injection, schedule: Q01DX009 (ip), vehicle: Klucel (hydroxypropylcellulose) (HPC) 106 % of control | dose: 12.5 mg/kg/injection, schedule: Q04DX003 (ip), vehicle: Klucel (hydroxypropylcellulose) (HPC) 106 % of control | dose: 25.0 mg/kg/injection, schedule: Q01DX009 (ip), vehicle: Klucel (hydroxypropylcellulose) (HPC) 88 % of control | dose: 25.0 mg/kg/injection, schedule: Q04DX003 (ip), vehicle: Klucel (hydroxypropylcellulose) (HPC) 94 % of control | dose: 50.0 mg/kg/injection, schedule: Q04DX003 (ip), vehicle: Klucel (hydroxypropylcellulose) (HPC) 92 % of control

O=C1CCCCC12CCCC2
inactive: [4] 97 % of control | [5] 103 % of control | [6] 93 % of control

CCc1ccc(NS(=O)(=O)c2c(C)cc(C)cc2C)cc1
inactive: [7] 101 % of control | [8] 105 % of control | [9] 97 % of control

CCC1COC(Nc2cccc3c2CCCC3)=N1 (configuration not stated)
inactive: dose: 50.0 mg/kg/injection, schedule: Q04DX003 (ip), vehicle: saline with Tween-80 92 % of control | [1] 92 % of control | [2] 92 % of control

CCNC(C)(C)C(SSS)c1ccco1 (configuration not stated)
inactive: dose: 12.5 mg/kg/injection, schedule: Q01DX009 (ip), vehicle: gum acacia 90 % of control | dose: 25.0 mg/kg/injection, schedule: Q01DX009 (ip), vehicle: gum acacia 88 % of control | dose: 50.0 mg/kg/injection, schedule: Q01DX009 (ip), vehicle: gum acacia 90 % of control | dose: 100.0 mg/kg/injection, schedule: Q04DX003 (ip), vehicle: gum acacia 95 % of control | dose: 200.0 mg/kg/injection, schedule: Q04DX003 (ip), vehicle: gum acacia 95 % of control | dose: 400.0 mg/kg/injection, schedule: Q04DX003 (ip), vehicle: gum acacia 107 % of control

O=C1CC(C(c2ccccc2)c2ccccc2)CO1 (configuration not stated)
inactive: dose: 100.0 mg/kg/injection, schedule: Q01DX001 (ip), vehicle: Klucel (hydroxypropylcellulose) (HPC) 104 % of control | [7] 110 % of control and 89 % of control | [10] 94 % of control and 99 % of control | [11] 94 % of control | dose: 200.0 mg/kg/injection, schedule: Q01DX001 (ip), vehicle: Klucel (hydroxypropylcellulose) (HPC) 100 % of control | [8] 113 % of control and 89 % of control | [12] 94 % of control and 96 % of control | [13] 94 % of control | dose: 400.0 mg/kg/injection, schedule: Q01DX001 (ip), vehicle: Klucel (hydroxypropylcellulose) (HPC) 98 % of control | [9] 116 % of control and 89 % of control | [14] 99 % of control and 101 % of control | [15] 95 % of control

Cc1ccc(NC(=O)Nc2ccccc2F)cc1Cl
inactive: [7] 111 % of control | [8] 97 % of control | [9] 92 % of control

CC(CCOC(=O)c1ccccc1)=C(c1ccccc1)c1ccccc1
inactive: [10] 107 % of control | [12] 95 % of control | [14] 95 % of control

O=C(O)CNCc1cccnc1
inactive: dose: 100.0 mg/kg/injection, schedule: Q01DX005 (ip), vehicle: water 94 % of control | dose: 100.0 mg/kg/injection, schedule: Q04DX003 (ip), vehicle: water 97 % of control | dose: 200.0 mg/kg/injection, schedule: Q01DX005 (ip), vehicle: water 100 % of control | dose: 200.0 mg/kg/injection, schedule: Q04DX003 (ip), vehicle: water 97 % of control | dose: 400.0 mg/kg/injection, schedule: Q01DX005 (ip), vehicle: water 96 % of control | dose: 400.0 mg/kg/injection, schedule: Q04DX003 (ip), vehicle: water 104 % of control

c1cc2c(c(OCC3=NCCN3)c1)CCC2
inactive: dose: 10.0 mg/kg/injection, schedule: Q01DX009 (ip), vehicle: Klucel (hydroxypropylcellulose) (HPC) 107 % of control | dose: 20.0 mg/kg/injection, schedule: Q01DX009 (ip), vehicle: Klucel (hydroxypropylcellulose) (HPC) 105 % of control | dose: 40.0 mg/kg/injection, schedule: Q01DX009 (ip), vehicle: Klucel (hydroxypropylcellulose) (HPC) 93 % of control

CC1OC(O[C@H]2C[C@](O)(C(C)O)Cc3c(O)c4c(c(O)c32)C(=O)c2c(O)cccc2C4=O)CC(NC=O)C1O (some centres not stated)
inactive: dose: 0.05 mg/kg/injection, schedule: Q01DX009 (ip), vehicle: saline 116 % of control | dose: 0.1 mg/kg/injection, schedule: Q01DX001 (ip), vehicle: saline 105 % of control | dose: 0.1 mg/kg/injection, schedule: Q03DX003 (ip), vehicle: saline 112 % of control | dose: 0.2 mg/kg/injection, schedule: Q01DX001 (ip), vehicle: saline 116 % of control | dose: 0.2 mg/kg/injection, schedule: Q03DX003 (ip), vehicle: saline 119 % of control | dose: 0.8 mg/kg/injection, schedule: Q01DX009 (ip), vehicle: saline 119 % of control

CCOC(=Nc1ccccc1)c1ccccc1
inactive: [7] 104 % of control | [8] 100 % of control | [9] 102 % of control

O=C1NC(=O)C2=C1SCCS2
inactive: dose: 100.0 mg/kg/injection, schedule: Q04DX002 (ip), vehicle: saline with Tween-80 91 % of control | dose: 200.0 mg/kg/injection, schedule: Q04DX002 (ip), vehicle: saline with Tween-80 109 % of control | dose: 400.0 mg/kg/injection, schedule: Q04DX002 (ip), vehicle: saline with Tween-80 109 % of control

O=[N+]([O-])c1ccc(SSc2ccc([N+](=O)[O-])cc2)cc1
inactive: dose: 100.0 mg/kg/injection, schedule: Q01DX009 (ip), vehicle: saline with Tween-80 95 % of control | [10] 115 % of control | dose: 200.0 mg/kg/injection, schedule: Q01DX009 (ip), vehicle: saline with Tween-80 87 % of control | [12] 100 % of control | dose: 400.0 mg/kg/injection, schedule: Q01DX009 (ip), vehicle: saline with Tween-80 94 % of control | [14] 86 % of control

CC(NC(=O)OCc1ccccc1)C(=O)O (configuration not stated)
inactive: [7] 97 % of control | [10] 95 % of control | [11] 100 % of control | [8] 90 % of control | [12] 94 % of control | [13] 100 % of control | [9] 97 % of control | [14] 97 % of control | [15] 95 % of control

O=S1(=O)C=C(Br)c2ccccc21
inactive: [7] 101 % of control | [11] 91 % of control | [8] 91 % of control | [13] 96 % of control | [15] 90 % of control

CCOC(=O)COc1cc(Cl)c(Cl)cc1Cl
inactive: dose: 75.0 mg/kg/injection, schedule: Q01DX009 (ip), vehicle: gum acacia 110 % of control | dose: 100.0 mg/kg/injection, schedule: Q04DX002 (ip), vehicle: gum acacia 100 % of control | dose: 200.0 mg/kg/injection, schedule: Q04DX002 (ip), vehicle: gum acacia 118 % of control | dose: 400.0 mg/kg/injection, schedule: Q04DX002 (ip), vehicle: gum acacia 92 % of control

O=C(O)Cc1cc([N+](=O)[O-])c(O)c([N+](=O)[O-])c1
inactive: [4] 101 % of control | [11] 95 % of control | [5] 102 % of control | [13] 88 % of control | [6] 102 % of control | [15] 93 % of control

CCCCNC(=O)C1C2C=CC(CC2)C1C(=O)NCCCC (configuration not stated)
inactive: [1] 104 % of control | [2] 100 % of control | [3] 96 % of control

Cc1ccc(S(=O)(=O)NC(=O)NCCCS(C)=O)cc1 (configuration not stated)
inactive: [1] 100 % of control | [2] 102 % of control | [3] 100 % of control
